What was measured:
Assay type in all cases: cell-based
[1] = test system: human microvascular endothelial cells (HMVEC); assay: TNFα-induced heparanase secretion by endothelial cells with signaling inhibitors (immunoblot); details: HMVEC incubated with TNFα and inhibitor for 16 h; wortmannin 0.1 and 0.5 μM, Ly294002 10 and 50 μM, SN50 10 μM, FPT inhibitor III 100 μM, PD98059 5 μM, SB203580 650 nM, ZM336372 200 nM, caspase inhibitor III 10 μM; FIG. 5
Experimental: Human microvascular endothelial cells (HMVEC) were grown in 48-well plates (˜90% confluency). To induce heparanase activity, culture media was replaced with 200 μl Dulbecco's modified Eagle's medium (DMEM) complemented with 1% bovine serum albumin (BSA), 100 ng biotinylated HS and TNFα with or without (FIG. 5A) P13 kinase inhibitors (wortmannin, 0.1 μM and 0.5 μM, or Ly294002, 10 μM and 50 μM), (FIG. 5B) NFκB inhibitor (SN50, 10 μM), several MAP kinase inhibitors (FIG. 5C)—either 100 μM FPT inhibitor III (FPT, inhibits Ras processing in cells), 5 μM MAP kinase (MEK), inhibitor PD98059 (PD), 650 nM p38 kinase inhibitor SB203580 (SB), 200 nM c-Raf inhibitor ZM336372 (ZM); or an inhibitor cocktail (Cl) that contains all of the four inhibitors; or broad-spectrum caspase inhibitor III (Casp-I, 10 μM) (FIG. 5D). The cells were incubated with TNFα and the inhibitors for 16 h. The culture media was collected and the secreted proteins were analyzed by SDS-PAGE and heparanase protein was detected by immunoblotting using polyclonal anti-human heparanase antibody.

[2] = test system: human microvascular endothelial cells (HMVEC); assay: Induction of endothelial heparanase protein by cytokines (immunoblot); details: TNFα
Experimental: Experiments were done on human microvascular endothelial cells (HMVEC) grown in 48-well plates (˜90% confluency). To induce heparanase activity, culture media was replaced with 200 μl Dulbecco's modified Eagle's medium (DMEM) complemented with 1% bovine serum albumin (BSA) and 100 ng biotinylated HS with or without stimulants (5 ng/ml TGFα, 1 ng/ml IL 1β, or 200 ng/ml VEGF). Cells were incubated in a cell culture incubator for 16-18 hours and the entire 200 μmedia was added to a streptavidin-coated plate and followed by standard color development assay as described in Example 2. The secreted proteins were analyzed by SDS-PAGE and heparanase protein was detected by immunoblotting using polyclonal anti-human heparanase antibody.
Human microvascular endothelial cells (HMVEC) were grown in 48-well plates (˜90% confluency). To induce heparanase activity, culture media was replaced with 200 μl Dulbecco's modified Eagle's medium (DMEM) complemented with 1% bovine serum albumin (BSA) and 100 ng biotinylated HS with 0, 0.02, 1.5 and 5 ng/ml of TNFα. The secreted heparanase was detected by immunoblotting the culture media with anti-human heparanase antibody.

[3] = test system: endothelial cells; assay: Heparanase expression in endothelial cells induced by lysolecithin

Row | Compound | inhibition of TNFα-induced heparanase secretion [1] | further results
1 | Cc1ccc(NC(=O)c2cccc(N(C)C)c2)cc1NC(=O)c1ccc(O)cc1 [ZM336372] | do not inhibit | –
2 | TNFα | – | induction of heparanase in endothelial cells [2]: induces heparanase
3 | COc1cccc(-c2cc(=O)c3ccccc3o2)c1N [PD98059] | do not inhibit | –
4 | lysolecithin | – | induction of heparanase expression in endothelial cells [3]: induces heparanase expression
5 | C[S+]([O-])c1ccc(-c2nc(-c3ccncc3)c(-c3ccc(F)cc3)[nH]2)cc1 (stereo not drawn) [SB203580] | do not inhibit | –
6 | COC(=O)CC(NC(=O)OC(C)(C)C)C(=O)CF (stereo not drawn) [caspase inhibitor III] | blocked heparanase secretion | –

Source: US20030036103A1, “Methods and compositions for diagnosis and treatment of vascular conditions” (priority 2001, published 2003)
